“Also recorded” adds a separate entry of the source. Values belong to the compound of their own block, whether it stands above or below them.
Key:
[1] = system: patients with advanced solid tumors; assay: Phase I study in the United States: 2,2′-dithiobis ethane sulfonate with paclitaxel and cisplatin, incidence of neurotoxicity; format: in vivo, human; conditions: United States (n = 36), all doses 4.1 to 41.0 g/m^2
Description: In the Phase I study in the United States, human patients in Stage I received the following treatment regimen every 3 weeks: a single dose of paclitaxel (175 mg/m^2) administered intravenously over 3 hours, pre-cisplatin saline hydration (1000 mL 0.9% NaCl) for 2 hours, followed immediately by a single dose of 2,2′-dithiobis ethane sulfonate (4.1, 8.2, 12.3, 18.4, 27.6 and 41.0 g/m^2, depending on cohort assignment) administered intravenously over 15 or 30 minutes, a single dose of cisplatin (75 mg/m^2) administered intravenously over 1 hour and subsequently post-cisplatin saline hydration (500 cc 0.9% NaCl) for 1 hour.
A total of 36 patients (22 patients in Stage I and 14 patients in Stage II) with advanced solid tumors have been enrolled and treated in this study at two clinical sites in the United States. A total of 138 treatment courses of BNP7787 with chemotherapy were given to 36 patients giving an average number of 3.8 treatment cycles per patient. A total of 13 patients (36.1%) completed at least five treatment cycles while 5 patients (13.9%) completed at least seven treatment cycles.
(§1) The number and percentage of patients who reported neurotoxicity in the Phase I studies compared with historical control data are summarized on the next page. Severity grades were measured according to NCI-CTC standards.

female Wistar rats = assay: Paclitaxel-induced abnormal thermoesthesia, latent period for pseudo pain reactions (hot water bath 45° C.); format: in vivo, rat
Description: Paclitaxel was intravenously administered at a dose of 6 mg/kg once daily to female Wistar rats (8 rats per group) (the initial dosage date was defined as day 0). Treatment was repeated five times every other day.
The efficacy of 2,2′-dithiobis ethane sulfonate on the abnormal thermoesthesia occurring in response to the paclitaxel therapy was assessed using, as an index, a latent period for pseudo pain reactions. […] Each pseudo pain reaction-related latent period was measured on the day before the initial paclitaxel dosage (day −1, pretreatment), and daily for three days from the next day after the final paclitaxel dosage (from days 9 to 11, post-treatment), i.e., totally four times.
2,2′-dithiobis ethane sulfonate was, dissolved in water for injection to make its concentration 200 mg/ml upon use and the 2,2′-dithiobis ethane sulfonate solution thus prepared was intravenously administered at the dose of 500 mg/kg or 1,000 mg/kg immediately before the paclitaxel administration.

cancer patients = assay: Individual patient cases (Examples 2 to 7): BNP7787 with paclitaxel and cisplatin; format: in vivo, human; conditions: for tumor response: with paclitaxel and cisplatin; for peripheral neurotoxicity: 3 cycles
Description: A patient with adenocarcinoma of unknown origin presented with a pituitary mass and supraclavicular and mediastinal lymph nodes. They received the following treatment regimen every 3 weeks: a single dose of paclitaxel (175 mg/m^2) administered IV over 3 hours, pre-cisplatin saline hydration (500 mL 0.9% NaCl) for 1 hour, a single dose of BNP7787 (18.4 g/m^2) administered IV over 15 minutes, immediately followed by a single dose of cisplatin (75 mg/m^2) administered IV over 1 hour and subsequently post-cisplatin saline hydration (250 mL 0.9% NaCl) for 30 minutes. The patient received a total of six cycles of study treatment and experienced peripheral neuropathy (NCI-CTC Grade 2) during Cycles 4 through 6.
A patient with adenocarcinoma of gastric origin received the following treatment regimen every 3 weeks: a single dose of paclitaxel (175 mg/m^2) administered IV over 3 hours, pre-cisplatin saline hydration (500 mL 0.9% NaCl) for 1 hour, a single dose of BNP7787 (18.4 g/m^2) administered IV over 15 minutes, immediately followed by a single dose of cisplatin (75 mg/m^2) administered IV over 1 hour and subsequently post-cisplatin saline hydration (250 mL 0.9% NaCl) for 30 minutes.
A patient with adenocarcinoma of unknown origin presented with retroperitoneal and lung masses. They received the following treatment regimen every 3 weeks: a single dose of paclitaxel (175 mg/m^2) administered IV over 3 hours, pre-cisplatin saline hydration (250 mL 0.9% NaCl) for 30 minutes, a single dose of BNP7787 (18.4 g/m^2) administered IV over 15 minutes, immediately followed by a single dose of cisplatin (75 mg/m^2) administered IV over 1 hour and subsequently post-cisplatin saline hydration (250 mL 0.9% NaCl) for 30 minutes. The patient received a total of six cycles of study treatment and experienced Grade 1 numbness and tingling (peripheral neuropathy) beginning Day 2 of Cycle 1 which resolved on Day 5. The patient again experienced Grade 1 peripheral neuropathy during Cycle 4.
(§2) A patient with adenocarcinoma of the lung received the following treatment regimen every 3 weeks: a single dose of paclitaxel (175 mg/m^2) administered IV over 3 hours, pre-cisplatin saline hydration for 1 hour, immediately followed by a single dose of BNP7787 (18.4 g/m^2) administered IV over 30 minutes, a single dose of cisplatin (75 mg/m^2) administered IV over 1 hour and subsequently post-cisplatin saline hydration for 1.5 hours.
as §2, with “hours. The patient received a total of 3 cycles of study treatment and experienced Grade 1 peripheral neurotoxicity beginning on Day 6 of Cycle 3, which resolved on Day 20 of Cycle 3.” for “hours.”
as §2, with “large cell carcinoma” for “adenocarcinoma”, “hours. The patient received a total of 3 cycles of study treatment and experienced Grade 1 peripheral neurotoxicity beginning on Day 5 of Cycle 2.” for “hours.”

[2] = system: patients with advanced Non-Small Cell Lung Cancer (NSCLC); assay: Phase I study in Japan: 2,2′-dithiobis ethane sulfonate with paclitaxel and cisplatin, incidence of neurotoxicity; format: in vivo, human; conditions: Japan (NSCLC) (n = 19), all doses 4.1 to 41.0 g/m^2
Description: In the Phase I study in Japan, patients received the following treatment regimen every 3 weeks: a single dose of paclitaxel (175 mg/m^2) administered intravenously over 3 hours, pre-cisplatin saline hydration for 1 hour, immediately followed by a single dose of 2,2′-dithiobis ethane sulfonate (4.1, 8.2, 12.3, 18.4, 27.6 and 41.0 g/m^2, depending on cohort assignment) administered intravenously over 30 minutes, a single dose of cisplatin (75 mg/m^2) administered intravenously over 1 hour and subsequently post-cisplatin saline hydration for 1.5 hours.
A total of 19 patients with advanced Non-Small Cell Lung Cancer (NSCLC) have been enrolled and treated in this study at four clinical sites in Japan. Each patient was to receive a total of three treatment cycles during this study. A total of 43 treatment courses of 2,2′-dithiobis ethane sulfonate with chemotherapy were given to 19 patients giving an average of 2.3 treatment cycles per patient. A total of 11 patients (57.9%) completed all three treatment cycles while 8 patients (42.1%) discontinued therapy prior to completing the three treatment cycles.
as §1

[3] = system: patients in the Phase I studies (US & Japan); assay: US & Japan Phase I studies overall, incidence of neurotoxicity; format: in vivo, human
Description: Human clinical trials have been conducted in the United States, Europe and Japan regarding the safety and efficacy of the agents that make up this invention. These trials are ongoing. The following is a summary of the results obtained from early-stage (Phase 1) trials in the United States and Japan.
as §1
Overall, peripheral neuropathy, such as numbness, paresthesia or tingling, was reported in 54.5% of patients (30 patients, all severities) in the Phase I studies. The majority of neurotoxicity events experienced was mild in severity where 38.2% of patients (21 patients) reported Grade 1 neurotoxicity.

[4] = Overall (US & Japan) (n = 55), all doses 4.1 to 41.0 g/m^2, with paclitaxel and cisplatin
[5] = Phase I studies US & Japan, with paclitaxel and cisplatin

SMILES: O=S(=O)([O-])CCSSCCS(=O)(=O)[O-].[Na+].[Na+] [2,2′-dithiobis ethane sulfonate]
Incidence of neurotoxicity, Neurotoxicity Grade (NCI-CTC) 1 [1]: 8 (22.2) Number (%) of Patients
Incidence of neurotoxicity, Neurotoxicity Grade (NCI-CTC) 2 [1]: 8 (22.2) Number (%) of Patients
Incidence of neurotoxicity, Neurotoxicity Grade (NCI-CTC) 3 [1]: 0 (0.0) Number (%) of Patients
Incidence of neurotoxicity, Neurotoxicity Grade (NCI-CTC) 4 [1]: 0 (0.0) Number (%) of Patients
Incidence of neurotoxicity, Neurotoxicity Grade (NCI-CTC) ≧2 [1]: 8 (22.2) Number (%) of Patients
Incidence of neurotoxicity, Overall (all grades) [1]: 16 (44.0) Number (%) of Patients
Inhibition Rate (of latent period elongation) (female Wistar rats; 500 mg/kg iv with paclitaxel 6 mg/kg, Day 9): (17.8) %
Inhibition Rate (of latent period elongation) (female Wistar rats; 500 mg/kg iv with paclitaxel 6 mg/kg, Day 10): (18.0) %
Inhibition Rate (of latent period elongation) (female Wistar rats; 500 mg/kg iv with paclitaxel 6 mg/kg, Day 11): (19.4) %
Inhibition Rate (of latent period elongation) (female Wistar rats; 1,000 mg/kg iv with paclitaxel 6 mg/kg, Day 9): (43.3) %
Inhibition Rate (of latent period elongation) (female Wistar rats; 1,000 mg/kg iv with paclitaxel 6 mg/kg, Day 10): (38.0) %
Inhibition Rate (of latent period elongation) (female Wistar rats; 1,000 mg/kg iv with paclitaxel 6 mg/kg, Day 11): (51.0) %
effect on elongation of the latent period (female Wistar rats; 1000 mg/kg, day 9, p<0.05, Dunnet test): significant suppressing effects
effect on latent period (female Wistar rats; groups receiving 500 mg/kg or 1000 mg/kg in advance of paclitaxel): suppressing tendency as a whole
effect on paclitaxel-induced abnormal thermoesthesia (female Wistar rats; overall conclusion of Example 1): mitigates effectively
tumor response (cancer patients; Example 2: after Cycle 2, confirmed after Cycles 4 and 6): complete response
peripheral neuropathy (NCI-CTC) (cancer patients; Example 2: person, adenocarcinoma of unknown origin, 18.4 g/m^2, six cycles, during Cycles 4 through 6): Grade 2
peripheral neuropathy (cancer patients; Example 3: person, adenocarcinoma of gastric origin, 18.4 g/m^2, five cycles): no peripheral neuropathy
tumor response (cancer patients; Example 3: stable Cycles 2 through 4, progression following Cycle 5, listed as BNP7787): stable disease; also recorded: progressive disease
tumor response (cancer patients; Example 4: partial after Cycle 2, complete after Cycle 6, listed as BNP7787): partial response; also recorded: complete response
peripheral neuropathy (numbness and tingling) (cancer patients; Example 4: person, adenocarcinoma of unknown origin, 18.4 g/m^2, six cycles, Cycle 1 Day 2 to 5 and Cycle 4): Grade 1
tumor response (cancer patients; Example 5: after Cycles 2 and 3): partial response
peripheral neurotoxicity (cancer patients; Example 5: person, adenocarcinoma of the lung, 18.4 g/m^2): no peripheral neurotoxicity
tumor response (cancer patients; Example 6: after Cycles 2 and 3): partial response
peripheral neurotoxicity (cancer patients; Example 6: person, adenocarcinoma of the lung, 18.4 g/m^2, Day 6 to Day 20 of Cycle 3): Grade 1
peripheral neurotoxicity (cancer patients; Example 7: person, large cell carcinoma of the lung, 18.4 g/m^2, beginning Day 5 of Cycle 2): Grade 1
tumor response (cancer patients; Example 7): stable disease
Incidence of neurotoxicity, Neurotoxicity Grade (NCI-CTC) 1 [2]: 13 (68.4) Number (%) of Patients
Incidence of neurotoxicity, Neurotoxicity Grade (NCI-CTC) 2 [2]: 1 (5.2) Number (%) of Patients
Incidence of neurotoxicity, Neurotoxicity Grade (NCI-CTC) 3 [2]: 0 (0.0) Number (%) of Patients
Incidence of neurotoxicity, Neurotoxicity Grade (NCI-CTC) 4 [2]: 0 (0.0) Number (%) of Patients
Incidence of neurotoxicity, Neurotoxicity Grade (NCI-CTC) ≧2 [2]: 1 (5.2) Number (%) of Patients
Incidence of neurotoxicity, Overall (all grades) [2]: 14 (73.6) Number (%) of Patients
Incidence of neurotoxicity, Neurotoxicity Grade (NCI-CTC) 1 [3, 4]: 21 (38.2) Number (%) of Patients
Incidence of neurotoxicity, Neurotoxicity Grade (NCI-CTC) 2 [3, 4]: 9 (16.4) Number (%) of Patients
Incidence of neurotoxicity, Neurotoxicity Grade (NCI-CTC) 3 [3, 4]: 0 (0.0) Number (%) of Patients
Incidence of neurotoxicity, Neurotoxicity Grade (NCI-CTC) 4 [3, 4]: 0 (0.0) Number (%) of Patients
Incidence of neurotoxicity, Neurotoxicity Grade (NCI-CTC) ≧2 [3, 4]: 9 (16.4) Number (%) of Patients
Incidence of neurotoxicity, Overall (all grades) [3, 4]: 30 (54.5) Number (%) of Patients
incidence of moderate to severe (≧Grade 2) neurotoxicity [3, 5]: 16.4%
overall incidence of neurotoxicity (peripheral neuropathy, all severities), patients [3, 5]: 54.5%
patients who reported Grade 1 neurotoxicity [3, 5]: 38.2%
patients who reported Grade 2 peripheral neuropathy [3, 5]: 16.4%
Grade 3 or 4 neurotoxicity ([3]; Phase I studies, including patients who received up to 9 cycles of chemotherapy): No patient experienced Grade 3 or 4 neurotoxicity
peripheral neuropathy as dose limiting toxicity ([3]; administered concurrently with paclitaxel and cisplatin chemotherapy): not a dose limiting toxicity
effect on incidence of neurotoxicity versus historical control ([3]; concurrent administration with cisplatin and paclitaxel chemotherapy): decreases the incidence of neurotoxicity

latent period (female Wistar rats; paclitaxel alone, day 9 post-treatment): 18.9 ± 1.4 s
latent period (female Wistar rats; paclitaxel alone, day 10 post-treatment): 19.9 ± 2.2 s
latent period (female Wistar rats; paclitaxel alone, day 11 post-treatment): 19.4 ± 2.4 s
latent periods compared with control groups (female Wistar rats; paclitaxel alone, p<0.01, student's t-test or Man-Whitney U-test): significantly elongated
latent period (female Wistar rats; paclitaxel alone, prior to the initiation of paclitaxel administration (pretreatment)): 9.4 ± 1.0 s
SMILES: CC(=O)O[C@H]1C(=O)[C@@]2(C)[C@H]([C@H](OC(=O)c3ccccc3)[C@]3(O)C[C@H](OC(=O)[C@H](O)[C@@H](NC(=O)c4ccccc4)c4ccccc4)C(C)=C1C3(C)C)[C@]1(OC(C)=O)CO[C@@H]1C[C@@H]2O [Paclitaxel, paclitaxel, reference compound]
